Assay results as given in ChEMBL document CHEMBL1697781, “Assessment of the health effects of chemicals in humans: II. Construction of an adverse effects database for QSAR modeling” (Curr Drug Discov Technol, 2004).

Experiments:
Settings in all cases: human; call rule not given here
Hepatotoxicity [1] = assay: FDA HLAED, liver enzyme composite activity
Hepatotoxicity [2] = assay: FDA HLAED, alkaline phosphatase increase
Hepatotoxicity [3] = assay: FDA HLAED, serum glutamic oxaloacetic transaminase (SGOT) increase
Hepatotoxicity [4] = assay: FDA HLAED, serum glutamic pyruvic transaminase (SGPT) increase
Hepatotoxicity [5] = assay: FDA HLAED, lactate dehydrogenase (LDH) increase
Hepatotoxicity [6] = assay: FDA HLAED, gamma-glutamyl transferase (GGT) increase
Wherever GGT Increase - Index Value is given: reference of the scale not given here.
Wherever LDH Increase - Index Value is given: reference of the scale not given here.

SMILES | Composite Activity - Active (Hepatotoxicity [1]) | Composite Activity - Marginal (Hepatotoxicity [1]) | Composite Activity - Score (Hepatotoxicity [1]) | Alkaline Phosphatase Increase - Activity Score (Hepatotoxicity [2]) | Alkaline Phosphatase Increase - Index Value (Hepatotoxicity [2]) | Alkaline Phosphatase Increase - Number of Reports (Hepatotoxicity [2]) | SGOT Increase - Activity Score (Hepatotoxicity [3]) | SGOT Increase - Index Value (Hepatotoxicity [3]) | SGOT Increase - Number of Reports (Hepatotoxicity [3]) | SGPT Increase - Activity Score (Hepatotoxicity [4]) | SGPT Increase - Index Value (Hepatotoxicity [4]) | SGPT Increase - Number of Reports (Hepatotoxicity [4]) | LDH Increase - Activity Score (Hepatotoxicity [5]) | LDH Increase - Index Value (Hepatotoxicity [5]) | LDH Increase - Number of Reports (Hepatotoxicity [5]) | GGT Increase - Activity Score (Hepatotoxicity [6]) | GGT Increase - Index Value (Hepatotoxicity [6]) | GGT Increase - Number of Reports (Hepatotoxicity [6]) | also measured
CC[C@H]1OC(=O)[C@H](C)[C@@H](O[C@H]2C[C@@](C)(OC)[C@@H](O)[C@H](C)O2)[C@H](C)[C@@H](O[C@@H]2O[C@H](C)C[C@H](N(C)C)[C@H]2O)[C@](C)(O)C[C@@H](C)[C@@H]2N[C@@H](COCCOC)O[C@H]([C@H]2C)[C@]1(C)O [DIRITHROMYCIN] | 0 | 0 | Inactive | Inactive | 0 | < 4 | Inactive | 5.4 | < 4 | Inactive | 5.4 | < 4 | Inactive | 0 | < 4 | Inactive | 2.7 | < 4 | 
Cc1ccccc1N1CCN(CCc2nnc3n2CCCC3)CC1 [DAPIPRAZOLE] | 0 | 0 | Inactive | Inactive | 0 | < 4 | Inactive | 0 | < 4 | Inactive | 0 | < 4 | Inactive | 0 | < 4 | Inactive | 0 | < 4 | 
CCOC(=O)[C@H](CCc1ccccc1)N[C@@H](C)C(=O)N1[C@H](C(=O)O)C[C@H]2CCCC[C@@H]21 [TRANDOLAPRIL] | 1 | 0 | Inactive | Inactive | 0 | < 4 | Inactive | 7 | < 4 | Marginally Active | 10.5 | < 4 | Inactive | 0 | < 4 | Inactive | 0 | < 4 | 
COc1cc2c(cc1OC)[C@@H](Cc1cc(OC)c(OC)c(OC)c1)[N+](C)(CCCOC(=O)CC/C=C/CCC(=O)OCCC[N+]1(C)CCc3cc(OC)c(OC)cc3[C@H]1Cc1cc(OC)c(OC)c(OC)c1)CC2.[Cl-].[Cl-] (stereo partly drawn) [MIVACURIUM CHLORIDE] | 0 | 0 | Inactive | Inactive | 0 | < 4 | Inactive | 0 | < 4 | Inactive | 0 | < 4 | Inactive | 0 | < 4 | Inactive | 0 | < 4 | 
Clc1ccc2nsnc2c1NC1=NCCN1 [TIZANIDINE] |  |  |  | Inactive | 8.3 | < 4 | Inactive | 16.5 | < 4 | Active | 24.8 | < 4 | Inactive | 8.3 | < 4 | Inactive | 8.3 | < 4 | Composite Activity - Active (Hepatotoxicity [1]; Liver): 1; Composite Activity - Marginal (Hepatotoxicity [1]; Liver): 0; Composite Activity - Score (Hepatotoxicity [1]; Liver): Inactive
O=C(O)COCCN1CCN(C(c2ccccc2)c2ccc(Cl)cc2)CC1 (stereo not drawn) [CETIRIZINE] |  |  |  | Inactive | 0 | < 4 | Inactive | 1 | < 4 | Inactive | 1.3 | >= 4 | Inactive | 1 | < 4 | Inactive | 0.6 | < 4 | Composite Activity - Active (Hepatotoxicity [1]; Liver): 0; Composite Activity - Marginal (Hepatotoxicity [1]; Liver): 0; Composite Activity - Score (Hepatotoxicity [1]; Liver): Inactive
Nc1cc(-c2ccncc2)c[nH]c1=O [INAMRINONE] | 0 | 0 | Inactive | Inactive | 2.2 | < 4 | Inactive | 6.6 | < 4 | Inactive | 4.4 | < 4 | Inactive | 2.2 | < 4 | Inactive | 0 | < 4 | 
CC(C)(C)NC(=O)[C@@H]1CN(Cc2cccnc2)CCN1C[C@@H](O)C[C@@H](Cc1ccccc1)C(=O)N[C@H]1c2ccccc2C[C@H]1O.O | 5 | 0 | Active | Active | 54.8 | >= 4 | Active | 137 | >= 4 | Active | 116.4 | >= 4 | Active | 44.5 | >= 4 | Active | 13.7 | < 4 | 
CCN1CCN(C(=O)N[C@@H](C(=O)N[C@@H]2C(=O)N3C(C(=O)O)=C(CSc4nnnn4C)CS[C@H]23)c2ccc(O)cc2)C(=O)C1=O [CEFOPERAZONE] | 0 | 0 | Inactive | Inactive | 0 | < 4 | Inactive | 0.4 | >= 4 | Inactive | 0.2 | < 4 | Inactive | 0.1 | < 4 | Inactive | 0 | < 4 | 
CN(C/C=C/C#CC(C)(C)C)Cc1cccc2ccccc12 [TERBINAFINE] | 0 | 1 | Inactive | Inactive | 1.1 | >= 4 | Marginally Active | 3.1 | >= 4 | Inactive | 2.8 | >= 4 | Inactive | 1.1 | >= 4 | Inactive | 2.6 | >= 4 | 
C[C@H]1C[C@H]2[C@@H]3CCC4=CC(=O)C=C[C@]4(C)[C@@]3(Cl)[C@@H](O)C[C@]2(C)[C@@]1(O)C(=O)CO [BECLOMETHASONE] | 0 | 0 | Inactive | Inactive | 0 | < 4 | Inactive | 0 | < 4 | Inactive | 0 | < 4 | Inactive | 0 | < 4 | Inactive | 0 | < 4 | 
